In ChEMBL document CHEMBL4130444, “1,4-Naphthoquinones as inhibitors of Itch, a HECT domain-E3 ligase, and tumor growth suppressors in multiple myeloma” (Eur J Med Chem, 2017):

Key:
Homo sapiens [1] = organism: Homo sapiens; assay: Inhibition of UBE1/UbcH5a/SCFFbw7/Cyclin E1 (unknown origin) assessed as protein activity at […] by electrochemiluminescence based ubiquitin profiler panel assay; set-up: scale not given: the % may be the effect or the level left
Homo sapiens [2] = organism: Homo sapiens; assay: Inhibition of UBE1/UbcH3/SCFbTrCP1/IkBa (unknown origin) assessed as protein activity at […] by electrochemiluminescence based ubiquitin profiler panel assay; set-up: scale not given: the % may be the effect or the level left
Homo sapiens [3] = organism: Homo sapiens; assay: Inhibition of UBE1/UbcH4/SCFbTrCP1/IkBa (unknown origin) assessed as protein activity at […] by electrochemiluminescence based ubiquitin profiler panel assay; set-up: scale not given: the % may be the effect or the level left
Homo sapiens [4] = organism: Homo sapiens; assay: Inhibition of UBE1/UbcH3/SCFbTrCP1/b-catenin (unknown origin) assessed as protein activity at […] by electrochemiluminescence based ubiquitin profiler panel assay; set-up: scale not given: the % may be the effect or the level left
Homo sapiens [5] = organism: Homo sapiens; assay: Inhibition of UBE1/UbcH4/SCFbTrCP1/b-catenin (unknown origin) assessed as protein activity at […] by electrochemiluminescence based ubiquitin profiler panel assay; set-up: scale not given: the % may be the effect or the level left
Homo sapiens [6] = organism: Homo sapiens; assay: Inhibition of UBE1/UbcH4/MDM2/CK1d/p53 (unknown origin) assessed as protein activity at […] by electrochemiluminescence based ubiquitin profiler panel assay; set-up: scale not given: the % may be the effect or the level left
Homo sapiens [7] = organism: Homo sapiens; assay: Inhibition of UBE1/UbcH5c/MDM2/CK1d/p53 (unknown origin) assessed as protein activity at […] by electrochemiluminescence based ubiquitin profiler panel assay; set-up: scale not given: the % may be the effect or the level left
Homo sapiens [8] = organism: Homo sapiens; assay: Inhibition of UBE1/UbcH4/MDM2/MDM2(Auto) (unknown origin) assessed as protein activity at […] by electrochemiluminescence based ubiquitin profiler panel assay; set-up: scale not given: the % may be the effect or the level left
Homo sapiens [9] = organism: Homo sapiens; assay: Inhibition of UBE1/UbcH5c/MDM2/MDM2(Auto) (unknown origin) assessed as protein activity at […] by electrochemiluminescence based ubiquitin profiler panel assay; set-up: scale not given: the % may be the effect or the level left
Homo sapiens [10] = organism: Homo sapiens; assay: Inhibition of UBE1/UbcH4/c-Cbl/Src (unknown origin) assessed as protein activity at […] by electrochemiluminescence based ubiquitin profiler panel assay; set-up: scale not given: the % may be the effect or the level left
Homo sapiens [11] = organism: Homo sapiens; assay: Inhibition of UBE1/UbcH4/c-Cbl/Kit (unknown origin) assessed as protein activity at […] by electrochemiluminescence based ubiquitin profiler panel assay; set-up: scale not given: the % may be the effect or the level left
Homo sapiens [12] = organism: Homo sapiens; assay: Inhibition of UBE1/UbcH4/VHL/HIF-1a (unknown origin) assessed as protein activity at […] by electrochemiluminescence based ubiquitin profiler panel assay; set-up: scale not given: the % may be the effect or the level left
Homo sapiens [13] = organism: Homo sapiens; assay: Inhibition of UBE1/UbcH5a/VHL/HIF-1a (unknown origin) assessed as protein activity at […] by electrochemiluminescence based ubiquitin profiler panel assay; set-up: scale not given: the % may be the effect or the level left
Homo sapiens [14] = organism: Homo sapiens; assay: Inhibition of UBE1/UbcH5c/VHL/HIF-1a (unknown origin) assessed as protein activity at […] by electrochemiluminescence based ubiquitin profiler panel assay; set-up: scale not given: the % may be the effect or the level left
Homo sapiens [15] = organism: Homo sapiens; assay: Inhibition of UBE1/UbcH7/Parkin/Parkin(Auto) (unknown origin) assessed as protein activity at […] by electrochemiluminescence based ubiquitin profiler panel assay; set-up: scale not given: the % may be the effect or the level left
Homo sapiens [16] = organism: Homo sapiens; assay: Inhibition of UBE1/UbcH7/Parkin/p38/JTV-1 (unknown origin) assessed as protein activity at […] by electrochemiluminescence based ubiquitin profiler panel assay; set-up: scale not given: the % may be the effect or the level left
Homo sapiens [17] = organism: Homo sapiens; assay: Inhibition of UBE1/UbcH13/Uev1A/CHIP/p53 (unknown origin) assessed as protein activity at […] by electrochemiluminescence based ubiquitin profiler panel assay; set-up: scale not given: the % may be the effect or the level left
Homo sapiens [18] = organism: Homo sapiens; assay: Inhibition of UBE1/UbcH13/Uev1A/CHIP/Hsp70 (unknown origin) assessed as protein activity at […] by electrochemiluminescence based ubiquitin profiler panel assay; set-up: scale not given: the % may be the effect or the level left
Homo sapiens [19] = organism: Homo sapiens; assay: Inhibition of UBE1/UbcH13/Uev1A/CHIP/CHIP(Auto) (unknown origin) assessed as protein activity at […] by electrochemiluminescence based ubiquitin profiler panel assay; set-up: scale not given: the % may be the effect or the level left
Homo sapiens [20] = organism: Homo sapiens; assay: Inhibition of UBE1/UbcH5c/MuRF1/Cardiac Troponin (unknown origin) assessed as protein activity at […] by electrochemiluminescence based ubiquitin profiler panel assay; set-up: scale not given: the % may be the effect or the level left
Homo sapiens [21] = organism: Homo sapiens; assay: Inhibition of UBE1/UbcH6/Parkin/Parkin(Auto) (unknown origin) assessed as protein activity at […] by electrochemiluminescence based ubiquitin profiler panel assay; set-up: scale not given: the % may be the effect or the level left
Homo sapiens [22] = organism: Homo sapiens; assay: Inhibition of UBE1/UbcH6/Parkin/p38/JTV-1 (unknown origin) assessed as protein activity at […] by electrochemiluminescence based ubiquitin profiler panel assay; set-up: scale not given: the % may be the effect or the level left
A-431 = assay: Antiproliferative activity against human A431 cells incubated for 48 hrs by SRB assay; format: functional; details: A-431, 48 h
[23] = tested on: KATO III stomach cancer cell line; assay: Antiproliferative activity against human KATO III cells incubated for 48 hrs by SRB assay; format: functional
U-87 MG = assay: Antiproliferative activity against human U87MG cells incubated for 48 hrs by SRB assay; format: functional, U-87MG ATCC
Hep 3B2 = assay: Antiproliferative activity against human Hep3B cells incubated for 48 hrs by SRB assay; format: functional
HepG2 = assay: Antiproliferative activity against human HepG2 cells incubated for 48 hrs by SRB assay; format: functional; details: HepG2, 48 h
A498 = assay: Antiproliferative activity against human A498 cells incubated for 48 hrs by SRB assay; format: functional; details: A498, 48 h
ACHN = assay: Antiproliferative activity against human ACHN cells incubated for 48 hrs by SRB assay; format: functional
MOLT-4 = assay: Antiproliferative activity against human MOLT4 cells incubated for 48 hrs by SRB assay; format: functional; details: MOLT-4, 48 h
HL-60 = assay: Antiproliferative activity against human HL60 cells incubated for 48 hrs by SRB assay; format: functional; details: HL-60, 48 h
K562 = assay: Antiproliferative activity against human K562 cells incubated for 48 hrs by SRB assay; format: functional; details: K562, 48 h

Q: How did the Activity (Homo sapiens [1]) turn out when O=C(Nc1ccncc1)c1ccc(CNC2=C(Cl)C(=O)c3ccccc3C2=O)cc1 was run?
A: 100%

Q: What about the Activity (Homo sapiens [2]) of the same compound?
A: 102%

Q: And the Activity (Homo sapiens [3])?
A: 91%

Q: And the Activity (Homo sapiens [4])?
A: 101%

Q: What about the Activity (Homo sapiens [5]) of the same compound?
A: 68%

Q: What about the Activity (Homo sapiens [6]) of the same compound?
A: 71%

Q: What about the Activity (Homo sapiens [7]) of the same compound?
A: 75%

Q: What about the Activity (Homo sapiens [8]) of the same compound?
A: 92%

Q: And the Activity (Homo sapiens [9])?
A: 105%

Q: And the Activity (Homo sapiens [10])?
A: 89%

Q: What about the Activity (Homo sapiens [11]) of the same compound?
A: 86%

Q: And the Activity (Homo sapiens [12])?
A: 96%

Q: And the Activity (Homo sapiens [13])?
A: 95%

Q: What about the Activity (Homo sapiens [14]) of the same compound?
A: 100%

Q: What about the Activity (Homo sapiens [15]) of the same compound?
A: 65%

Q: And the Activity (Homo sapiens [16])?
A: 72%

Q: What about the Activity (Homo sapiens [17]) of the same compound?
A: 52%

Q: What about the Activity (Homo sapiens [18]) of the same compound?
A: 93%

Q: And the Activity (Homo sapiens [19])?
A: 65%

Q: What about the Activity (Homo sapiens [20]) of the same compound?
A: 92%

Q: And the Activity (Homo sapiens [21])?
A: 61%

Q: And the Activity (Homo sapiens [22])?
A: 79%

Q: What about the GI50 (A-431) of the same compound?
A: 1200 nM

Q: And the GI50 [23]?
A: 2400 nM

Q: And the GI50 (U-87 MG)?
A: 2500 nM

Q: And the GI50 (Hep 3B2)?
A: 1400 nM

Q: What about the GI50 (HepG2) of the same compound?
A: 3600 nM

Q: What about the GI50 (A498) of the same compound?
A: 3500 nM

Q: And the GI50 (ACHN)?
A: 2700 nM

Q: What about the GI50 (MOLT-4) of the same compound?
A: 4000 nM

Q: And the GI50 (HL-60)?
A: 1600 nM

Q: And the GI50 (K562)?
A: 1700 nM
